Assay results as given in ChEMBL document CHEMBL1649134, “Occurrence of efflux mechanism and cephalosporinase variant in a population of Enterobacter aerogenes and Klebsiella pneumoniae isolates producing extended-spectrum beta-lactamases” (2009).
≈ marks a conversion by molar mass, not a printed value.

Experiments:
Klebsiella aerogenes [1] = assay: Antimicrobial activity against multidrug resistant Enterobacter aerogenes isolate 1 by broth dilution method; assay type: functional
Klebsiella aerogenes [2] = assay: Antimicrobial activity against multidrug resistant Enterobacter aerogenes isolate 2 by broth dilution method; assay type: functional
Klebsiella aerogenes [3] = assay: Antimicrobial activity against multidrug resistant Enterobacter aerogenes isolate 3 by broth dilution method; assay type: functional
Klebsiella aerogenes [4] = assay: Antimicrobial activity against multidrug resistant Enterobacter aerogenes isolate 4 by broth dilution method; assay type: functional
Klebsiella aerogenes [5] = assay: Antimicrobial activity against multidrug resistant Enterobacter aerogenes isolate 5 by broth dilution method; assay type: functional
Klebsiella aerogenes [6] = assay: Antimicrobial activity against multidrug resistant Enterobacter aerogenes isolate 6 by broth dilution method; assay type: functional
Klebsiella aerogenes [7] = assay: Antimicrobial activity against multidrug resistant Enterobacter aerogenes isolate 7 by broth dilution method; assay type: functional
Klebsiella aerogenes [8] = assay: Antimicrobial activity against multidrug resistant Enterobacter aerogenes isolate 8 by broth dilution method; assay type: functional
Klebsiella aerogenes [9] = assay: Antimicrobial activity against multidrug resistant Enterobacter aerogenes isolate 9 by broth dilution method; assay type: functional
Klebsiella aerogenes [10] = assay: Antimicrobial activity against multidrug resistant Enterobacter aerogenes isolate 10 by broth dilution method; assay type: functional
Klebsiella aerogenes [11] = assay: Antimicrobial activity against multidrug resistant Enterobacter aerogenes isolate 11 by broth dilution method; assay type: functional
Klebsiella aerogenes [12] = assay: Antimicrobial activity against multidrug resistant Enterobacter aerogenes isolate 12 by broth dilution method; assay type: functional
Klebsiella aerogenes [13] = assay: Antimicrobial activity against multidrug resistant Enterobacter aerogenes isolate 13 by broth dilution method; assay type: functional
Klebsiella aerogenes [14] = assay: Antimicrobial activity against multidrug resistant Enterobacter aerogenes isolate 14 by broth dilution method; assay type: functional
Klebsiella aerogenes [15] = assay: Antimicrobial activity against multidrug resistant Enterobacter aerogenes isolate 15 by broth dilution method; assay type: functional
Klebsiella aerogenes [16] = assay: Antimicrobial activity against multidrug resistant Enterobacter aerogenes isolate 16 by broth dilution method; assay type: functional
Klebsiella aerogenes [17] = assay: Antimicrobial activity against multidrug resistant Enterobacter aerogenes isolate 17 by broth dilution method; assay type: functional
Klebsiella aerogenes [18] = assay: Antimicrobial activity against multidrug resistant Enterobacter aerogenes isolate 18 by broth dilution method; assay type: functional
Klebsiella aerogenes [19] = assay: Antimicrobial activity against multidrug resistant Enterobacter aerogenes isolate 19 by broth dilution method; assay type: functional
Klebsiella aerogenes [20] = assay: Antimicrobial activity against multidrug resistant Enterobacter aerogenes isolate 20 by broth dilution method; assay type: functional
Klebsiella aerogenes [21] = assay: Antimicrobial activity against multidrug resistant Enterobacter aerogenes isolate 21 by broth dilution method; assay type: functional
Klebsiella aerogenes [22] = assay: Antimicrobial activity against multidrug resistant Enterobacter aerogenes isolate 22 by broth dilution method; assay type: functional
Klebsiella aerogenes [23] = assay: Antimicrobial activity against multidrug resistant Enterobacter aerogenes isolate 23 by broth dilution method; assay type: functional
Klebsiella aerogenes [24] = assay: Antimicrobial activity against multidrug resistant Enterobacter aerogenes isolate 24 by broth dilution method; assay type: functional
Klebsiella aerogenes [25] = assay: Antimicrobial activity against multidrug resistant Enterobacter aerogenes isolate 25 by broth dilution method; assay type: functional
Klebsiella aerogenes [26] = assay: Antimicrobial activity against multidrug resistant Enterobacter aerogenes isolate 26 by broth dilution method; assay type: functional
Klebsiella aerogenes [27] = assay: Antimicrobial activity against multidrug resistant Enterobacter aerogenes isolate 27 by broth dilution method; assay type: functional
Klebsiella pneumoniae [28] = assay: Antimicrobial activity against multidrug resistant Klebsiella pneumoniae ATCC 11296 by broth dilution method; assay type: functional
Klebsiella pneumoniae [29] = assay: Antimicrobial activity against multidrug resistant Klebsiella pneumoniae isolate 1 by broth dilution method; assay type: functional
Klebsiella pneumoniae [30] = assay: Antimicrobial activity against multidrug resistant Klebsiella pneumoniae isolate 2 by broth dilution method; assay type: functional
Klebsiella pneumoniae [31] = assay: Antimicrobial activity against multidrug resistant Klebsiella pneumoniae isolate 3 by broth dilution method; assay type: functional
Klebsiella pneumoniae [32] = assay: Antimicrobial activity against multidrug resistant Klebsiella pneumoniae isolate 4 by broth dilution method; assay type: functional
Klebsiella pneumoniae [33] = assay: Antimicrobial activity against multidrug resistant Klebsiella pneumoniae isolate 5 by broth dilution method; assay type: functional
Klebsiella pneumoniae [34] = assay: Antimicrobial activity against multidrug resistant Klebsiella pneumoniae isolate 6 by broth dilution method; assay type: functional
Klebsiella pneumoniae [35] = assay: Antimicrobial activity against multidrug resistant Klebsiella pneumoniae isolate 7 by broth dilution method; assay type: functional
Klebsiella pneumoniae [36] = assay: Antimicrobial activity against multidrug resistant Klebsiella pneumoniae isolate 8 by broth dilution method; assay type: functional
Klebsiella pneumoniae [37] = assay: Antimicrobial activity against multidrug resistant Klebsiella pneumoniae isolate 9 by broth dilution method; assay type: functional
Klebsiella pneumoniae [38] = assay: Antimicrobial activity against multidrug resistant Klebsiella pneumoniae isolate 10 by broth dilution method; assay type: functional
Klebsiella pneumoniae [39] = assay: Antimicrobial activity against multidrug resistant Klebsiella pneumoniae isolate 11 by broth dilution method; assay type: functional
Klebsiella pneumoniae [40] = assay: Antimicrobial activity against multidrug resistant Klebsiella pneumoniae isolate 12 by broth dilution method; assay type: functional
Klebsiella pneumoniae [41] = assay: Antimicrobial activity against multidrug resistant Klebsiella pneumoniae isolate 13 by broth dilution method; assay type: functional
Klebsiella pneumoniae [42] = assay: Antimicrobial activity against multidrug resistant Klebsiella pneumoniae isolate 14 by broth dilution method; assay type: functional
Klebsiella pneumoniae [43] = assay: Antimicrobial activity against multidrug resistant Klebsiella pneumoniae isolate 15 by broth dilution method; assay type: functional
Klebsiella pneumoniae [44] = assay: Antimicrobial activity against multidrug resistant Klebsiella pneumoniae isolate 16 by broth dilution method; assay type: functional
Klebsiella aerogenes [45] = assay: Antimicrobial activity against multidrug resistant Enterobacter aerogenes ATCC 15038 by broth dilution method; assay type: functional
Klebsiella aerogenes [46] = assay: Antimicrobial activity against multidrug resistant Enterobacter aerogenes ATCC 15038 harboring pDrive plasmid by broth dilution method; assay type: functional
Klebsiella aerogenes [47] = assay: Antimicrobial activity against multidrug resistant Enterobacter aerogenes ATCC 15038 harboring pACM204 plasmid by broth dilution method; assay type: functional
Klebsiella aerogenes [48] = assay: Antimicrobial activity against multidrug resistant Enterobacter aerogenes ATCC 15038 harboring pDrive plasmid expressing ampC gene by broth dilution method; assay type: functional
Escherichia coli [49] = assay: Antimicrobial activity against multidrug resistant Escherichia coli ATCC 35218 by broth dilution method; assay type: functional
Escherichia coli [50] = assay: microbe, parasite or virus in culture; conditions: DH5[alpha]
Description: Antimicrobial activity against multidrug resistant Escherichia coli DH5[alpha] by broth dilution method

Escherichia coli [51] = assay: microbe, parasite or virus in culture; conditions: DH5[alpha]; remark: listed apart in the source
Description: Antimicrobial activity against multidrug resistant Escherichia coli DH5[alpha] harboring pDrive plasmid by broth dilution method

Escherichia coli [52] = assay: microbe, parasite or virus in culture; conditions: DH5[alpha]; remark: listed apart in the source
Description: Antimicrobial activity against multidrug resistant Escherichia coli DH5[alpha] harboring pDrive plasmid expressing ampC gene by broth dilution method

Escherichia coli [53] = assay: microbe, parasite or virus in culture; conditions: DH5[alpha]; remark: listed apart in the source
Description: Antimicrobial activity against multidrug resistant Escherichia coli DH5[alpha] harboring pACM204 plasmid by broth dilution method

Escherichia coli [54] = assay: microbe, parasite or virus in culture; conditions: ATCC 35218
Description: Antimicrobial activity against multidrug resistant Escherichia coli ATCC 35218 harboring pDrive plasmid by broth dilution method

Escherichia coli [55] = assay: microbe, parasite or virus in culture; conditions: ATCC 35218; remark: listed apart in the source
Description: Antimicrobial activity against multidrug resistant Escherichia coli ATCC 35218 harboring pDrive plasmid expressing ampC gene by broth dilution method

CC(C)(O/N=C(\C(=O)N[C@@H]1C(=O)N2C(C(=O)[O-])=C(C[n+]3ccccc3)CS[C@H]12)c1csc(N)n1)C(=O)O [CEFTAZIDIME]
MIC (Klebsiella aerogenes [1]): > 2050 µg/mL | MIC (Klebsiella aerogenes [2]): > 2050 µg/mL | MIC (Klebsiella aerogenes [3]): > 2050 µg/mL | MIC (Klebsiella aerogenes [4]): > 2050 µg/mL | MIC (Klebsiella aerogenes [5]): > 2050 µg/mL | MIC (Klebsiella aerogenes [6]): 256 µg/mL (≈ 0.468 mM) | MIC (Klebsiella aerogenes [7]): > 2050 µg/mL | MIC (Klebsiella aerogenes [8]): > 2050 µg/mL | MIC (Klebsiella aerogenes [9]): > 2050 µg/mL | MIC (Klebsiella aerogenes [10]): > 2050 µg/mL | MIC (Klebsiella aerogenes [11]): > 2050 µg/mL | MIC (Klebsiella aerogenes [12]): > 2050 µg/mL | MIC (Klebsiella aerogenes [13]): > 2050 µg/mL | MIC (Klebsiella aerogenes [14]): > 2050 µg/mL | MIC (Klebsiella aerogenes [15]): > 2050 µg/mL | MIC (Klebsiella aerogenes [16]): > 2050 µg/mL | MIC (Klebsiella aerogenes [17]): > 2050 µg/mL | MIC (Klebsiella aerogenes [18]): 1020 µg/mL (≈ 1.87 mM) | MIC (Klebsiella aerogenes [19]): > 2050 µg/mL | MIC (Klebsiella aerogenes [20]): > 2050 µg/mL | MIC (Klebsiella aerogenes [21]): > 2050 µg/mL | MIC (Klebsiella aerogenes [22]): > 2050 µg/mL | MIC (Klebsiella aerogenes [23]): 2050 µg/mL (≈ 3.75 mM) | MIC (Klebsiella aerogenes [24]): > 2050 µg/mL | MIC (Klebsiella aerogenes [25]): > 2050 µg/mL | MIC (Klebsiella aerogenes [26]): 1020 µg/mL (≈ 1.87 mM) | MIC (Klebsiella aerogenes [27]): > 2050 µg/mL | MIC (Klebsiella pneumoniae [28]): 0.5 µg/mL (≈ 0.000915 mM) | MIC (Klebsiella pneumoniae [29]): 2050 µg/mL (≈ 3.75 mM) | MIC (Klebsiella pneumoniae [30]): 2050 µg/mL (≈ 3.75 mM) | MIC (Klebsiella pneumoniae [31]): > 2050 µg/mL | MIC (Klebsiella pneumoniae [32]): > 2050 µg/mL | MIC (Klebsiella pneumoniae [33]): > 2050 µg/mL | MIC (Klebsiella pneumoniae [34]): 32 µg/mL (≈ 0.0585 mM) | MIC (Klebsiella pneumoniae [35]): > 2050 µg/mL | MIC (Klebsiella pneumoniae [36]): > 2050 µg/mL | MIC (Klebsiella pneumoniae [37]): > 2050 µg/mL | MIC (Klebsiella pneumoniae [38]): > 2050 µg/mL | MIC (Klebsiella pneumoniae [39]): > 2050 µg/mL | MIC (Klebsiella pneumoniae [40]): 16 µg/mL (≈ 0.0293 mM) | MIC (Klebsiella pneumoniae [41]): 16 µg/mL (≈ 0.0293 mM) | MIC (Klebsiella pneumoniae [42]): 16 µg/mL (≈ 0.0293 mM) | MIC (Klebsiella pneumoniae [43]): > 2050 µg/mL | MIC (Klebsiella pneumoniae [44]): 2050 µg/mL (≈ 3.75 mM) | MIC (Klebsiella aerogenes [45]): 0.25 µg/mL (≈ 0.000457 mM) | MIC (Klebsiella aerogenes [46]): 0.5 µg/mL (≈ 0.000915 mM) | MIC (Klebsiella aerogenes [47]): 64 µg/mL (≈ 0.117 mM) | MIC (Klebsiella aerogenes [48]): 64 µg/mL (≈ 0.117 mM) | MIC (Escherichia coli [49]): 0.125 µg/mL (≈ 0.000229 mM) | MIC (Escherichia coli [50]): 2 µg/mL (≈ 0.00366 mM) | MIC (Escherichia coli [51]): 2 µg/mL (≈ 0.00366 mM) | MIC (Escherichia coli [52]): 32 µg/mL (≈ 0.0585 mM) | MIC (Escherichia coli [53]): 32 µg/mL (≈ 0.0585 mM) | MIC (Escherichia coli [54]): 0.5 µg/mL (≈ 0.000915 mM) | MIC (Escherichia coli [55]): 16 µg/mL (≈ 0.0293 mM)
